Reference: patent publication US20250026721A1, “COMPOUNDS AND METHODS FOR MODULATING RAS-PI3K” (Vividion Therapeutics, Inc., priority 2023, published 2025)

Experiments:
PIK3CA = molecular target: T1, PIK3CA (Homo sapiens, UniProt P42336); test: In vitro ELISA target engagement assay for PIK3CA in Jurkat cellular lysate (competition with PIK3CA Biotin Probe); format: binding; conditions: 1 hour at rt, then 500 nM PIK3CA Biotin Probe, read-out: Elisa Target Engagement Assay (TE50)
T1 construct: endogenous in cells; host or cells: Jurkat cell lysate
T1 sequence (P42336 whole entry): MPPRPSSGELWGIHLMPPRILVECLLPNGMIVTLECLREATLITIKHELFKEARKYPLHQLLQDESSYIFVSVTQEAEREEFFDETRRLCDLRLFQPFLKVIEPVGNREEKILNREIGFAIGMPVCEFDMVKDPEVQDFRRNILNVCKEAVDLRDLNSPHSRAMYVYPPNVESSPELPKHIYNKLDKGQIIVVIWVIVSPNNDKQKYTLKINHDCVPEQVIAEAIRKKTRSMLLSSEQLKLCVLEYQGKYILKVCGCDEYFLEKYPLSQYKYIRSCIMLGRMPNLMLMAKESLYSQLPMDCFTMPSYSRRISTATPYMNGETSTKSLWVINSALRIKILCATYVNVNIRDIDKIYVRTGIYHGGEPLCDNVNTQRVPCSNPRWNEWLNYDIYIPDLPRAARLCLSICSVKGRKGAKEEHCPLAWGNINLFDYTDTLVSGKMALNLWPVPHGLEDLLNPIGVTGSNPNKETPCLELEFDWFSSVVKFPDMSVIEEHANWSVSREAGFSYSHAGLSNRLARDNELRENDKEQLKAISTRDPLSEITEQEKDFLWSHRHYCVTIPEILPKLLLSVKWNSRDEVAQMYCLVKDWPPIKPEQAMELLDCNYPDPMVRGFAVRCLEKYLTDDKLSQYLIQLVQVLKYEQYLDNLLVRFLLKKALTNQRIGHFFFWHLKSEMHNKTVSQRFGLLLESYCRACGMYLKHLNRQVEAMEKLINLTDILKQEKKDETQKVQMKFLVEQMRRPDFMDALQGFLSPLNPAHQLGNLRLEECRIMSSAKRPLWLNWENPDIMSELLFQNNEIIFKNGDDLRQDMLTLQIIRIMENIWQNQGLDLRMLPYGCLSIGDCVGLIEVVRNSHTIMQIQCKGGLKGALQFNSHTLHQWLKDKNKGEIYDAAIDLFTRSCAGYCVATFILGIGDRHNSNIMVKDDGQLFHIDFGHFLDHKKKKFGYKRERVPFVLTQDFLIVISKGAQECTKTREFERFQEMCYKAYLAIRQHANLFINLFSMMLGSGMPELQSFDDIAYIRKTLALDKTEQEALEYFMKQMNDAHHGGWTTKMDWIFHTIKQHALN
T1 sequence (P27986 whole entry partner): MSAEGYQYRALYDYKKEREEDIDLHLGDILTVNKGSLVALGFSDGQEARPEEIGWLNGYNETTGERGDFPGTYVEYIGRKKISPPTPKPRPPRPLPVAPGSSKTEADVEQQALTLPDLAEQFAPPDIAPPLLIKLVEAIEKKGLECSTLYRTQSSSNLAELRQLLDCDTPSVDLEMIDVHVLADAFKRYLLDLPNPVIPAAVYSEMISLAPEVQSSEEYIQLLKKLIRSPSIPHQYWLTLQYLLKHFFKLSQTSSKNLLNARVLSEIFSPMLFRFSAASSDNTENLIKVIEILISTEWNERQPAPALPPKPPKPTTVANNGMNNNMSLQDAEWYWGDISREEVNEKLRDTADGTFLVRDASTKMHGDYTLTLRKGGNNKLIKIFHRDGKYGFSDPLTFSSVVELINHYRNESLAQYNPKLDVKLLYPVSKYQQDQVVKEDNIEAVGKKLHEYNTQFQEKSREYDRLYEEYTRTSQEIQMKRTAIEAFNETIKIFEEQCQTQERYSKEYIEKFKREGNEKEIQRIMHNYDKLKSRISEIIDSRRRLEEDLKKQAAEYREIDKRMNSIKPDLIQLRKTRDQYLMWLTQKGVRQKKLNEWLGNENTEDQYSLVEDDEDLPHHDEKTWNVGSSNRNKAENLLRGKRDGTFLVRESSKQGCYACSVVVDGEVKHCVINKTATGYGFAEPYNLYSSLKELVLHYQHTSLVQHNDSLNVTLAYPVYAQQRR
Outline: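 Competition format in Jurkat lysate: compound (serial dilutions, top 200 μM) for 1 h at rt, then 500 nM final biotinylated PIK3CA probe for 1 h at rt. Sandwich ELISA with capture antibody and Neutravidin-HRP luminescence read-out measured probe-labelled PIK3CA, giving TE50.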

PIK3CA_C242 = molecular target: T2, PIK3CA_C242 (Homo sapiens, UniProt P42336); test: Proteomic TE50 (IA-DTB / TMT mass spectrometry) in Jurkat cell lysate; format: binding; conditions: 1 hour at rt, 7-point dose response
T2 construct: endogenous in cells; host or cells: Jurkat cell lysate
T2 sequence (P42336 whole entry): as the sequence (P42336 whole entry) above
T2 sequence (P27986 whole entry partner): as the sequence (P27986 whole entry partner) above
Outline: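 Cysteine engagement was read by targeted TMT MS3 of the IA-DTB-labelled, streptavidin-enriched C242 tryptic peptide. Beforehand, Jurkat lysate was exposed to a 7-point 1:5 compound series for 1 h at rt, then to 200 μM IA-DTB for 1 h. Reporter S/N curves gave TE50.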

Row | IC50 (PIK3CA) [nM] | IC50 (PIK3CA_C242) [nM] | SMILES
1 | 340 | 261 | Cc1ccccc1-c1cc(N2CCC2)ccc1S(=O)(=O)N1CCC(F)(C(=O)N[C@H](C)/C=C\S(C)(=O)=O)CC1 [Compound 116, (R,Z)-1-((5-(azetidin-1-yl)-2′-methyl-[1,1′-biphenyl]-2-yl)sulfonyl)-4-fluoro-N-(4-(methylsulfonyl)but-3-en-2-yl)piperidine-4-carboxamide]
2 | 830 | 810 | C[C@H](/C=C\S(C)(=O)=O)NC(=O)C1(F)CCN(S(=O)(=O)c2ccc(N3CCCC3)cc2-c2ccccc2)CC1 [Compound 117, (R,Z)-4-fluoro-N-(4-(methylsulfonyl)but-3-en-2-yl)-1-((5-(pyrrolidin-1-yl)-[1,1′-biphenyl]-2-yl)sulfonyl)piperidine-4-carboxamide]
3 | 670 | 460 | C[C@H](/C=C\S(C)(=O)=O)NC(=O)C1(F)CCN(S(=O)(=O)c2ccc(N3CCCC3)cc2-c2ccccc2Cl)CC1 [Compound 119, (R,Z)-1-((2′-chloro-5-(pyrrolidin-1-yl)-[1,1′-biphenyl]-2-yl)sulfonyl)-4-fluoro-N-(4-(methylsulfonyl)but-3-en-2-yl)piperidine-4-carboxamide]
4 | 1000 | 880 | C[C@H](/C=C\S(C)(=O)=O)NC(=O)C1(F)CCN(S(=O)(=O)c2ccc(N3CCOCC3)cc2-c2ccccc2Cl)CC1 [Compound 121, (R,Z)-1-((2′-chloro-5-morpholino-[1,1′-biphenyl]-2-yl)sulfonyl)-4-fluoro-N-(4-(methylsulfonyl)but-3-en-2-yl)piperidine-4-carboxamide]
5 | 610 | 490 | Cc1ccccc1-c1cc(N2CCOCC2)ccc1S(=O)(=O)N1CCC(F)(C(=O)N[C@H](C)/C=C\S(C)(=O)=O)CC1 [Compound 122, (R,Z)-4-fluoro-1-((2′-methyl-5-morpholino-[1,1′-biphenyl]-2-yl)sulfonyl)-N-(4-(methylsulfonyl)but-3-en-2-yl)piperidine-4-carboxamide]
6 | 820 | 63 | C[C@H](/C=C\S(C)(=O)=O)NC(=O)C1(F)CCN(S(=O)(=O)c2ccc(N3CCCC3)cc2-c2ccc(F)cc2Cl)CC1 [Compound 123, (R,Z)-1-((2′-chloro-4′-fluoro-5-(pyrrolidin-1-yl)-[1,1′-biphenyl]-2-yl)sulfonyl)-4-fluoro-N-(4-(methylsulfonyl)but-3-en-2-yl)piperidine-4-carboxamide]
7 | 320 | 150 | C[C@H](/C=C\S(C)(=O)=O)NC(=O)C1(F)CCN(S(=O)(=O)c2ccc(N3CCC3)cc2-c2ccccc2Cl)CC1 [Compound 124, (R,Z)-1-((5-(azetidin-1-yl)-2′-chloro-[1,1′-biphenyl]-2-yl)sulfonyl)-4-fluoro-N-(4-(methylsulfonyl)but-3-en-2-yl)piperidine-4-carboxamide]
8 | 430 | 816 | COCc1cccc(-c2cc(Cl)ccc2S(=O)(=O)N2CCC(F)(C(=O)N[C@@H](C)/C=C\S(C)(=O)=O)CC2)c1 [Compound 126, (S,Z)-1-((5-chloro-3′-(methoxymethyl)-[1,1′-biphenyl]-2-yl)sulfonyl)-4-fluoro-N-(4-(methylsulfonyl)but-3-en-2-yl)piperidine-4-carboxamide]
9 | 1100 | 960 | CO/N=C/c1cccc(-c2cc(Cl)ccc2S(=O)(=O)N2CCC(F)(C(=O)N[C@@H](C)/C=C\S(C)(=O)=O)CC2)c1 [Compound 127, 1-((5-chloro-3′-((E)-(methoxyimino)methyl)-[1,1′-biphenyl]-2-yl)sulfonyl)-4-fluoro-N-((S,Z)-4-(methylsulfonyl)but-3-en-2-yl) piperidine-4-carboxamide]
10 | 524 | 468 | C[C@H](/C=C\S(C)(=O)=O)NC(=O)C1(F)CCN(S(=O)(=O)c2ccc(C3COC3)cc2-c2ccccc2Cl)CC1 [Compound 132, (R,Z)-1-((2′-chloro-5-(oxetan-3-yl)-[1,1′-biphenyl]-2-yl)sulfonyl)-4-fluoro-N-(4-(methylsulfonyl)but-3-en-2-yl)piperidine-4-carboxamide]
11 | 87.2 | 120 | C[C@H](/C=C/C(=O)N1CC(F)(F)C1)NC(=O)C1(F)CCN(S(=O)(=O)c2ccc(Br)cc2-c2ccccc2Cl)CC1 [Compound 135, (R,E)-1-((5-bromo-2′-chloro-[1,1′-biphenyl]-2-yl)sulfonyl)-N-(5-(3,3-difluoroazetidin-1-yl)-5-oxopent-3-en-2-yl)-4-fluoropiperidine-4-carboxamide]
12 | 493 | 226 | COc1cc(-c2ccccc2Cl)c(S(=O)(=O)N2CCC(F)(C(=O)N[C@H](C)/C=C\S(C)(=O)=O)CC2)cn1 [Compound 186, 1-[[4-(2-chlorophenyl)-6-methoxy-3-pyridyl]sulfonyl]-4-fluoro-N—[(Z,1R)-1-methyl-3-methylsulfonyl-allyl]piperidine-4-carboxamide]
13 | 110 | 61 | COc1cc(-c2ccccc2C)c(S(=O)(=O)N2CCC(F)(C(=O)N[C@@H](C)/C=C\S(C)(=O)=O)CC2)cn1 [Compound 190, (S,Z)-4-fluoro-1-((6-methoxy-4-(o-tolyl)pyridin-3-yl)sulfonyl)-N-(4-(methylsulfonyl)but-3-en-2-yl)piperidine-4-carboxamide]
14 | 280 | 240 | COc1cc(-c2ccccc2)c(S(=O)(=O)N2CCC(F)(C(=O)N[C@@H](C)/C=C\S(C)(=O)=O)CC2)cn1 [Compound 192, (S,Z)-4-fluoro-1-((6-methoxy-4-phenylpyridin-3-yl)sulfonyl)-N-(4-(methylsulfonyl)but-3-en-2-yl)piperidine-4-carboxamide]
15 | 290 | 284 | COc1cc(-c2ccccc2C)c(S(=O)(=O)N2CCC(F)(C(=O)N[C@H](C)/C=C\S(C)(=O)=O)CC2)cn1 [Compound 193, (R,Z)-4-fluoro-1-((6-methoxy-4-(o-tolyl)pyridin-3-yl)sulfonyl)-N-(4-(methylsulfonyl)but-3-en-2-yl)piperidine-4-carboxamide]
16 | 350 | 310 | COc1cccc(-c2cc(Cl)ccc2S(=O)(=O)N2CCC(C)(C(=O)N[C@@H](C)/C=C\S(C)(=O)=O)CC2)c1 [Compound 201, (S,Z)-1-((5-chloro-3′-methoxy-[1,1′-biphenyl]-2-yl)sulfonyl)-4-methyl-N-(4-(methylsulfonyl)but-3-en-2-yl)piperidine-4-carboxamide]
17 | 180 | 180 | COc1cc(-c2ccccc2Cl)c(S(=O)(=O)N2CCC(F)(C(=O)N[C@H](C)/C=C\S(C)(=O)=O)CC2)cc1OC [Compound 202, (R,Z)-1-((2′-chloro-4,5-dimethoxy-[1,1′-biphenyl]-2-yl)sulfonyl)-4-fluoro-N-(4-(methylsulfonyl)but-3-en-2-yl)piperidine-4-carboxamide]
18 | 980 | 1110 | COc1cccc(-c2cc(Cl)ccc2S(=O)(=O)N2CCC(C)(C(=O)N[C@H](C)/C=C\S(C)(=O)=O)CC2)c1 [Compound 203, (R,Z)-1-((5-chloro-3′-methoxy-[1,1′-biphenyl]-2-yl)sulfonyl)-4-methyl-N-(4-(methylsulfonyl)but-3-en-2-yl)piperidine-4-carboxamide]
19 | 340 | 730 | C[C@H](/C=C\S(C)(=O)=O)NC(=O)C1(F)CCN(S(=O)(=O)c2ccc(Br)cc2-c2ncccc2Cl)CC1 [Compound 204, (R,Z)-1-((4-bromo-2-(3-chloropyridin-2-yl)phenyl)sulfonyl)-4-fluoro-N-(4-(methylsulfonyl)but-3-en-2-yl)piperidine-4-carboxamide]
20 | 560 | 440 | C[C@H](/C=C\S(C)(=O)=O)NC(=O)C1(F)CCN(S(=O)(=O)c2ncc(Br)cc2-c2ccccc2Cl)CC1 [Compound 218, (R,Z)-1-((5-bromo-3-(2-chlorophenyl)pyridin-2-yl)sulfonyl)-4-fluoro-N-(4-(methylsulfonyl)but-3-en-2-yl)piperidine-4-carboxamide]
21 | 970 | 1090 | COc1ccc(S(=O)(=O)N2CCC(F)(C(=O)N[C@@H](C)/C=C\S(C)(=O)=O)CC2)c(-c2ccccc2OC)c1 [Compound 219, (S,Z)-1-((2′,5-dimethoxy-[1,1′-biphenyl]-2-yl)sulfonyl)-4-fluoro-N-(4-(methylsulfonyl)but-3-en-2-yl)piperidine-4-carboxamide]
22 | 920 | 1530 | C[C@@H](/C=C\S(C)(=O)=O)NC(=O)C1(F)CCN(S(=O)(=O)c2ccc(Cl)cc2-c2cccc(CCO)c2)CC1 [Compound 220, (S,Z)-1-((5-chloro-3′-(2-hydroxyethyl)-[1,1′-biphenyl]-2-yl)sulfonyl)-4-fluoro-N-(4-(methylsulfonyl)but-3-en-2-yl)piperidine-4-carboxamide]
23 | 1100 | 970 | COc1ccc(S(=O)(=O)N2CCC(F)(C(=O)N[C@H](C)/C=C/C#N)CC2)c(-c2ccccc2Cl)c1 [Compound 229, (R,E)-1-((2′-chloro-5-methoxy-[1,1′-biphenyl]-2-yl)sulfonyl)-N-(4-cyanobut-3-en-2-yl)-4-fluoropiperidine-4-carboxamide]
24 | 130 | 114 | C[C@H](/C=C\S(C)(=O)=O)NC(=O)C1(F)CCN(S(=O)(=O)c2cnc(Cl)cc2-c2ccccc2Cl)CC1 [Compound 231, (R,Z)-1-((6-chloro-4-(2-chlorophenyl)pyridin-3-yl)sulfonyl)-4-fluoro-N-(4-(methylsulfonyl)but-3-en-2-yl)piperidine-4-carboxamide]
